We go through eleven compounds from patent US5686458A, “Quinazoline deriviates for treating peptic ulcer” (Yuhan Corporation, priority 1992, dated 1997).

Structures can show the parent of a compound that is named as a salt.

Assay [1] has as its system gastric secretion. Briefly: Inhibition of Gastric Secretion, pylorus-ligated rats (Experiment 2). It is filed as in vivo, Sprague-Dawley rats. The settings on record: relative to omeprazole (equation III), 20 mg/kg intraduodenally, pylorus-ligated rats, 5 hours. As to the method: In accordance with the method disclosed in Shay, H., et al., Gastroenterology 5, 43-61(1945), Experiment 2 was carried out.
Sprague-Dawley rats having a body weight of 170±10 g were divided into 3 groups(n=5) and deprived of food for 24 hours before the experiment with free access to water. Under ether anesthesia, the abdomen was incised, and the pylorus was ligated. As a comparative group, Group 1 was administered intraduodenally in a volume of 0.5 ml/200 g of 30% aqueous polyethylene glycol 400 solution. Groups 2 and 3 were administered intraduodenally with the compound of Example 34 and omeprazole, respectively, each of which was suspended in 30% aqueous polyethylene glycol 400 solution at a concentration of 20 mg/kg. After closing the abdominal cavity, the rats were placed for 5 hours and then killed by cervical dislocation. The stomach was extracted to obtain gastric juice.
The gastric juice was centrifuged at 1,000 g to remove precipitates. The amount and acidity of the gastric juice were measured. Relative volumes, relative acid concentrations and relative acid outputs of the test compounds were calculated from equations(I), (II) and (III) and the results are shown in Table 2.
(I) = the average amount of gastric juice of Group 1 - the
average amount of gastric juice of Group 2)/(the average
amount of gastric juice of Group 1 - the average amount
of gastric juice of Group 3)
Relative acid concentration
(II) = (the average acidity of Group 1 - the average
acidity of Group 2)/(the average acidity of Group 1 - the average
(III) = (the total amount of acid output of Group 1 - the
total amount of acid output of Group 2)/(the total amount of acid
output of Group 1 - the total amount of acid output of Group

In assay [2] the target is T1, Proton Pump (H^+ /K^+ ATPase) (Oryctolagus cuniculus, UniProt P27112).
T1 construct: The microsomes thus obtained were used as an enzyme source of the in vitro enzyme reaction study of proton pump; from tissue; host or cells: rabbit stomach, mucosal scrapings, microsomes (180,000 g pellet)
Description: Inhibition of Proton Pump (H+/K+ ATPase) Activity, in vitro enzyme reaction (Experiment 1). The settings on record: for Effect ratio: IC50 of Omeprazole / IC50 of test compound; for IC50: K+-stimulated H+/K+ ATPase activity, rabbit gastric microsomes, pH 7.2, 37° C., 15 min prereaction, 30 min reaction, read-out: IC50 of test compound, inhibition (50%) of the proton pump activity. Format: biochemical, New Zealand white rabbit. As to the method: A New Zealand white rabbit was killed by blowing its head and the stomach was taken out. The contents of the stomach were removed and the stomach walls were washed with was saline. The inner wall of the stomach was scratched out with a slide glass and the cells thus obtained were homogenized in 0.25M sucrose buffer by means of a Teflon-glass homogenizer. The homogenous solution was centrifuged at 10,000 g for 10 minutes and the supernatant was further centrifuged at 20,000 g for 20 minutes. The supernatant thus obtained was centrifuged at an ultra-high speed of 180,000 g for 1 hour. The pellets precipitated were collected by discarding the supernatant and suspended in 50 mM Tris-HCl buffer having pH 7.2. The suspension was dialyzed twice with the same buffer(of 1,000 times volume) for 3 hours and stored into liquid nitrogen.
The above centrifugation and dialysis were carried out at 4° C. The microsomes thus obtained were used as an enzyme source of the in vitro enzyme reaction study of proton pump.
The inhibitory effects of proton pump activity by the compounds of the present invention were measured by the in vitro enzyme reaction study. The proton pump activity stimulated by Mg^++ was used as a negative comparative group, and the activity stimulated by Mg^++ and K^+ was used as a positive comparative group. The comparative compound was omeprazole.
Test tubes were divided into 4 groups: Group 1 as negative comparative group(n=3), Group 2 as positive comparative group(n=3), Group 3(n=5) to be administered with the compound of the present invention and Group 4(n=5) to be administered with the comparative compound. The inhibitory effects of proton pump activity of Groups 3 and 4 were measured by employing the compound prepared in Example 34 and omeprazole, respectively, each of which was dissolved in dimethylsulfoxide at 5 different concentrations.
To each of Groups 1, 2, 3 and 4, were added 0.1 ml of magnesium chloride(40 mM) dissolved in 50 mM Tris-HCl buffer (pH 7.2) and […] of the enzyme source prepared in Experiment 1-1. Then, 0.1 ml of potassium chloride(500 mM) and 0.1 ml of ammonium chloride(100 mM) dissolved in 50 mM Tris-HCl buffer(pH 7.2) were added to all groups except for Group 1.
0.1 ml of dimethylsulfoxide was added to each of Groups 1 and 2; and to Group 3 was added 0.01 ml of the solution in which the compound prepared in Example 34 was dissolved in dimethylsulfoxide at 5 different concentrations. To Group 4, 0.01 ml of the solution prepared by dissolving omprazole in dimethylsulfoxide at 5 different concentrations(37.6, 21.4, 12.2, 7.0 and 4.0 μM) was added. 50 mM Tris-HCl buffer was added thereto so as to make the total volume 0.4 ml.
Thereafter, the test tubes of each Group were placed at 37° C. for 15 minutes for the prereaction. 0.1 ml of ATP solution(33.3 mM), which was prepared by adding Tris-ATP 50 mM to Tris-HCl buffer having pH 7.2, was added until the reaction volume became 0.5 ml. The final concentrations of MgCl2, KCl, NH4 Cl, ATP, enzyme and Tris-HCl were 8 mM, 100 mM, 20 mM, 6.7 mM, 100μg/ml and 50 mM, respectively. After the reaction was carried out at 37° C. for 30 minutes, 25% cold trichloroacetic acid was added to terminate the enzyme reaction. The released inorganic phosphate was measured by an automatic analyzer(SBA 300, Gilford).
The difference between Group 1 and Group 2 represents the proton pump activity activated by K^+ only. The inhibition percentages of Groups 3 and 4 were calculated from Litchfield-wilcoxon equation[see J. Pharmacol. Exptl. Ther. 96, 99(1949)]. The concentrations of the test compounds which inhibit 50% of the proton pump activity are represented as IC50 in Table 1.

T1 sequence (P27112 whole entry): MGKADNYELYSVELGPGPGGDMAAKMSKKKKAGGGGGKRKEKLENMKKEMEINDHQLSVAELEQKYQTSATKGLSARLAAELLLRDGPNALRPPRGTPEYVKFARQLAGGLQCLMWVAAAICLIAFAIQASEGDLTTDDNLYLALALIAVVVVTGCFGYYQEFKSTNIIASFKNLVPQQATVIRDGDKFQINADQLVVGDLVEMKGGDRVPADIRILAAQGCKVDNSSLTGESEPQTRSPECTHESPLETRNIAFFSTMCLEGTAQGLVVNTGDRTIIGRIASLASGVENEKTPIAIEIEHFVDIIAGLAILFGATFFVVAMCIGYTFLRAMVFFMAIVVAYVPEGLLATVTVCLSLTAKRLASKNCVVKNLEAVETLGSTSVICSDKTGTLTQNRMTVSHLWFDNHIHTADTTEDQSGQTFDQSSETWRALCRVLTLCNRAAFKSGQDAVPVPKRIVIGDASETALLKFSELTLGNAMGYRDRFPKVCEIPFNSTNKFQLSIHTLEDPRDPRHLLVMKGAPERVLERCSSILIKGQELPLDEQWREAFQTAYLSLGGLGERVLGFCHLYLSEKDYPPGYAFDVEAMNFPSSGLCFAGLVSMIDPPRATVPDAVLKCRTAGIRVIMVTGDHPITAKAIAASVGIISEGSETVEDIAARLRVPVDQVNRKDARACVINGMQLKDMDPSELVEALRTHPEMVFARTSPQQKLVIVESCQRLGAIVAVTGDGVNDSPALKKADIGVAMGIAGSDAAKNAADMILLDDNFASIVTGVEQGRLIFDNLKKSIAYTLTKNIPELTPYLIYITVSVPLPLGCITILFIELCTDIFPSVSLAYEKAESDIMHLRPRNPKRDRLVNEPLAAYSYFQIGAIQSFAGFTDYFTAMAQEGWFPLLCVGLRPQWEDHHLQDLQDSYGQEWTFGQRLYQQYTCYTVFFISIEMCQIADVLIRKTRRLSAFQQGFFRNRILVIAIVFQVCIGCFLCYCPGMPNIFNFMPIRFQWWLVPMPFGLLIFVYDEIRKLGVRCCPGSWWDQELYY
T1 sequence (P18597 whole entry partner): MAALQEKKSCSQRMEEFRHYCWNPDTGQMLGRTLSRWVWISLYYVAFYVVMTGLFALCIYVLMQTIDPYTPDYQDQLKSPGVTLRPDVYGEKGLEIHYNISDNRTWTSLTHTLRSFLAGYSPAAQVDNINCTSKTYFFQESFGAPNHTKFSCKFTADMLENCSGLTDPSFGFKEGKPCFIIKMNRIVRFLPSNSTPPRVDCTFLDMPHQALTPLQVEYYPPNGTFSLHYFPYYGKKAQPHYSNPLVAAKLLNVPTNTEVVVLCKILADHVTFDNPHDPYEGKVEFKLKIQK

Turning to `COc1cccc2c(N3CCc4ccccc4C3(C)C)nc(Nc3ccc(F)cc3C)nc12` [Example 51, 2-(4-Fluoro-2-Methylphenyl-1-Amino)-8-Methoxy-4-(1,1-Dimethyl-1,2,3,4-Tetrahydroisoquinoline-2-Yl)Quinazoline Hydrochloride], the “Relative Acid Output” value in assay [1] is on record as 0.82. Besides, in assay [2], the Effect ratio came out at 1.21 and the IC50 came out at 6.12 µM.
As for `COc1cccc2c(N3CCc4cccc(C)c4C3C)nc(Nc3ccc(F)cc3)nc12.Cl` (stereo not drawn) [Example 52, 2-(4-Fluorophenylamino)-8-Methoxy-4-(1,8-Dimethyl-1,2,3,4-Tetrahydroisoquinoline-2-Yl)Quinazoline Hydrochloride], the “Relative Acid Output” value in assay [1] was determined as 0.79. Further, in assay [2], the Effect ratio is listed as 1.26 and the IC50 was determined as 7.5 µM.
In the same order, the values of `COc1cccc2c(N3CCc4cccc(C)c4C3C)nc(Nc3ccc(F)cc3C)nc12.Cl` (stereo not drawn) [Example 53, 2-(4-Fluoro-2-Methylphenyl-Amino)-8-Methoxy-4-(1,8-dimethyl-1,2,3,4-Tetrahydroisoquinoline-2-Yl)Quinazoline Hydrochloride] are 0.92, 4.75 and 2 µM.
In the same order, the values of `COc1cccc2c(N3CCc4cc(C)ccc4C3C)nc(Nc3ccc(F)cc3)nc12.Cl` (stereo not drawn) [Example 54, 2-(4-Fluorophenylamino)-8-Methoxy-4-(1,6-Dimethyl-1,2,3,4-Tetrahydroisoquinoline-2-Yl)Quinazoline Hydrochloride] are 0.82, ~ 0.64 and about 12.5 µM.
In the same order, the values of `COc1cccc2c(N3CCc4cc(C)ccc4C3C)nc(Nc3ccc(F)cc3C)nc12.Cl` (stereo not drawn) [Example 55, 2-(4-Fluoro-2-Methylphenyl-Amino)-8-Methoxy-4-(1,6-Dimethyl-1,2,3,4-Tetrahydroisoquinoline-2-Yl)Quinazoline Hydrochloride] are 0.50, ~ 0.80 and about 10 µM.
For the compound `COc1cccc2c(N3CC(C)c4ccccc4C3C)nc(Nc3ccc(F)cc3)nc12.Cl` (stereo not drawn) [Example 56, 2-(4-Fluorophenylamino)-8-Methoxy-4-(1,4-Dimethyl-1,2,3,4-Tetrahydroisoquinoline-2-Yl)Quinazoline Hydrochloride], in assay [1], the “Relative Acid Output” value amounted to 0.85. Besides, in assay [2], the Effect ratio was under 0.60 and the IC50 was over 12.5 µM.
In the same order, the values of `COc1cccc2c(N3CC(C)c4ccccc4C3C)nc(Nc3ccc(F)cc3C)nc12.Cl` (stereo not drawn) [Example 57, 2-(4-fluoro-2-Methylphenyl-Amino)-8-Methoxy-4-(1,4-Dimethyl-1,2,3,4-Tetrahydroisoquinoline-2-Yl) Quinazoline Hydrochloride] are 0.67, 1.04 and 7.18 µM.
The like results for `COc1cccc2c(N3CCc4cccc5c4C3CC5)nc(Nc3ccc(F)cc3)nc12.Cl` (stereo not drawn) [Example 58, 8-Methoxy-2-(4-Fluorophenyl-Amino)-4-(1,8-Ethano-1,2,3,4-Tetrahydroisoquinoline-2-Yl)Quinazoline Hydrochloride] were, in that order, 0.94, 0.65 and 13.6 µM.
In the case of `COc1cccc2c(N3CCc4cccc5c4C3CC5)nc(Nc3ccc(F)cc3C)nc12.Cl` (stereo not drawn) [Example 59, 8-Methoxy-2-(4-Fluoro-2-Methyl-Phenylamino)-4-(1,8-Ethano-1,2,3,4-Tetrahydroisoquinoline-2-Yl)Quinazoline Hydrochloride], in assay [1], the “Relative Acid Output” value turned out to be 0.83. Further, in assay [2], the Effect ratio turned out to be 1.77 and the IC50 stood at 4.8 µM.
In the same order, the values of `COc1cccc2c(N3CCc4ccccc4C3C)nc(Nc3ccc(F)cc3C)nc12.CS(=O)(=O)O` (stereo not drawn) [Example 60, 2-(4-Fluoro-2-MethylPhenyl-Amino)-8-Methoxy-4-(1-Methyl-1,2,3,4-Tetrahydroisoquinoline-2-Yl)Quinazoline Methanesulfonate] are 0.84, 5.20 and 1.8 µM.
In the same order, the values of `COc1cccc2c(N3CCc4ccccc4C3C)nc(Nc3ccc(F)cc3C)nc12.O=C(O)CC(O)C(=O)O` (stereo not drawn) [Example 61, 2-(4-Fluoro-2-Methylphenyl-Amino)-8-Methoxy-4-(1-Methyl-1,2,3,4-Tetrahydroisoquinoline-2-Yl)Quinazoline Malate] are 0.76, 4.42 and 2.1 µM.
